Series [1] is described as follows: Human hepatocytes stability assay. It counts as in vitro ADME. Put shortly: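 Compound at 1 μM incubated with cryopreserved suspension hepatocytes (1×10^6 cells/mL) in supplemented Williams' E Medium at 37° C, 5% CO2, with shaking. Reactions quenched with methanol at 2, 10, 20, 40, 60 and 120 min; parent depletion followed by LC-MS/MS.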
A further series relates to KRAS G12V in SW620. Briefly: pERK inhibition assay, SW620. The note with it: Homo sapiens, SW-620, SW620 cells, 4 hours incubation. It counts as cell-based, human. In short, it runs like this:
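NCI-H358, AGS and SW620 cells in RPMI-1640/10% FBS were plated overnight, then exposed to compound (0.5% DMSO final) for 4 h. After fixation and permeabilization, phospho-ERK was quantified by in-cell ELISA (HRP secondary, TMB, OD450); IC50 from a 4-parameter sigmoidal fit.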

The target in series [2] is KRAS G12D binding to BRAF (Homo sapiens (Human), UniProt P01116+P62937, G12D). Briefly: KRAS-BRAF with CYPA (50 nM) interaction assay (TR-FRET), G12D. The note with it: GMPPNP loaded 6His-KRAS, GST-BRAF RBD. In short, it runs like this:
(§1)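 Buffer 25 mM HEPES pH 7.4, 100 mM NaCl, 5 mM MgCl2, 10 μM GMPPNP, 0.1% BSA; final 50 nM tagless CYPA, 6.25 nM GMPPNP-loaded 6His-KRAS mutant, 1 nM GST-BRAF RBD. Compounds 16-point 3-fold series from 10 μM, 3 h; anti-6His-XL665/anti-GST-Tb added, 1.5 h; 665/615 nm ratio decrease versus DMSO.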
In general terms: Time-resolved FRET reads energy transfer from a long-lived donor to a nearby acceptor.

Another series addresses KRAS G12C-BRAF complex (Homo sapiens (Human), UniProt P01116+P62937, G12C). Briefly: KRAS-BRAF with CYPA (50 nM) interaction assay (TR-FRET), G12C. It counts as binding. Particulars: GMPPNP loaded 6His-KRAS, GST-BRAF RBD. Put shortly: as §1
The target in series [3] is KRAS G12V binding to BRAF (Homo sapiens (Human), UniProt P01116+P62937, G12V). Briefly: KRAS-BRAF with CYPA (50 nM) interaction assay (TR-FRET), G12V. Particulars: GMPPNP loaded 6His-KRAS, GST-BRAF RBD. Put shortly:
as §1

For a further series, the system named is SW620 cells. Briefly: Cell viability assay, SW620. The note with it: Homo sapiens, SW-620, SW620, 72 hours, Cell Counting Kit-8, read-out: G12V IC50. Format: cell-based, human. Put shortly:
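Cells were plated at 5,000 (NCI-H358) or 2,000 (AGS, SW620) per well and incubated overnight. They were then treated with compound in 0.5% DMSO for 72 h. Viability was read with CCK-8 as OD450 minus OD650 after 2 h, and IC50 came from a 4-parameter sigmoidal fit.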
A general note: Tetrazolium dyes change colour on reduction, which living cells bring about.

Each structure is given as a SMILES string. Where only a bound is given, the exact number is not on record here.

Chain of KRAS G12D binding to BRAF (P01116-2 other isoform, or with tags, fused parts or gaps G12D): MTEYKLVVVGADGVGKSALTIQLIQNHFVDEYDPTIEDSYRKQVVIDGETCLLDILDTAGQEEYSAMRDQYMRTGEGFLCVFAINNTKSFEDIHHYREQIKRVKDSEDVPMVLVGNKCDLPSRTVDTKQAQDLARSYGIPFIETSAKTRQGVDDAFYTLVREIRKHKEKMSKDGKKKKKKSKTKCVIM
Chain of KRAS G12D binding to BRAF (P62937 whole entry): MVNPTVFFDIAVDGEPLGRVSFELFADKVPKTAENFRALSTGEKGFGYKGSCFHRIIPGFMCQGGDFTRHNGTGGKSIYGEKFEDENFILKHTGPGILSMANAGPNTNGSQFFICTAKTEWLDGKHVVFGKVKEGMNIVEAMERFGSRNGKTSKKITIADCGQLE
Chain of KRAS G12V binding to BRAF (P01116-2 other isoform, or with tags, fused parts or gaps G12V): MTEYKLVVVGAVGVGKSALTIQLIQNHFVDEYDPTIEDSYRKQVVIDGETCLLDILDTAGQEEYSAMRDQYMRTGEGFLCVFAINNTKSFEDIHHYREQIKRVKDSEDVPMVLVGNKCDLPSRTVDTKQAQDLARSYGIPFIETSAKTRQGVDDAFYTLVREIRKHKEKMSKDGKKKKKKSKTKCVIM
Chain of KRAS G12V binding to BRAF (P62937 whole entry): as the sequence (P62937 whole entry) above
Chain of KRAS G12C-BRAF complex (P01116-2 other isoform, or with tags, fused parts or gaps G12C): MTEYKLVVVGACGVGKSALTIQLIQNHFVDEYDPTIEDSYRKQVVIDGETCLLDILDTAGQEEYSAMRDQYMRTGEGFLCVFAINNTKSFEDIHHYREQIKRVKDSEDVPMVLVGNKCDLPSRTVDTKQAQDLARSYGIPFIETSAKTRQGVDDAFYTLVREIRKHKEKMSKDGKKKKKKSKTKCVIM
Chain of KRAS G12C-BRAF complex (P62937 whole entry): as the sequence (P62937 whole entry) above

As for `CO[C@@H](C)c1ncc(N2CCOCC2)cc1-c1c2c3cc(ccc3n1CC(F)(F)F)-c1csc(n1)C[C@H](NC(=O)[C@H](C(C)C)N(C)C(=O)[C@H]1CCN(C(=O)[C@H](F)Cl)C1)C(=O)N1CCC[C@H](N1)C(=O)OCC(C)(C)C2` (atropisomer, axis not shown; (M)) [Example 25, (3S)-1-[(2R)-2-chloro-2-fluoro-acetyl]-N-[(1S)-1-[[(7S,13S)-(20M)-20-[2-[(1S)-1-methoxyethyl]-5-morpholino-3-pyridyl]-17,17-dimethyl-8,14-dioxo-21-(2,2,2-trifluoroethyl)-15-oxa-4-thia-9,21,27,28-tetrazapentacyclo[17.5.2.12,5.19,13.022,26]octacosa-1(25),2,5(28),19,22(26),23-hexaen-7-yl]carbamoyl]-2-methyl-propyl]-N-methyl-pyrrolidine-3-carboxamide], the “CL_hep (Human)” value in series [1] (1 μM compound, human hepatocytes 1×10^6 cells/mL) is 9.8 mL/min/kg. The “Clearance Category” value in series [1] (human hepatocytes) is “medium (16.24<CL_hep (mL/min/kg)>6.96 is medium clearance)”. Further, the IC50 (as a rule, the concentration that inhibits the measured activity by half) in the series with KRAS G12V in SW620 was 3 nM; in series [2], more than 10 µM; against KRAS G12C-BRAF complex, 32 nM; in series [3] it was more than 10 µM; in the series with SW620 cells it was 6 nM.

(Values after patent US20250163072A1, “MACROCYCLIC COMPOUNDS FOR THE TREATMENT OF CANCER” (Hoffmann-La Roche Inc., priority 2021, published 2025).)
